Entries after “also recorded” stand apart in the source; their conditions may differ. Counter-ions that a name gives are not always drawn.
What was measured:
[1] = test system: MOG-EAE in C57BL/6 mice; assay: Clinical course (clinical score) of active MOG-EAE; assay type: in vivo; settings: oral, from day -20, up to 72 days p.i., vs methocel control
Protocol: Treatment started at day -20 before the injection of MOG. The following compounds were administered orally to three groups of mice as follows: 1) Ca-monomethyl fumarate 5 mg/kg body weight bid; 2) dimethyl fumarate 15 mg/kg body weight bid; 3) 0.08% methocel as control. For analyzing the clinical course, data was pooled from two experiments (one experiment with 6 mice and another with 8 mice per group yielding a total number of 14 mice per experimental group). Clinical evaluation-Symptoms were scored 1-10 on a daily basis as described in Linker et al., Nat. Med., 2002, […] (see also Hartung et al., Brain, 1988, 11, 1039-1059). Briefly, disease severity was scored as follows: 0, normal; 1, reduced tone of tail; 2, limp tail, impaired righting; 3, absent righting; 4, gait ataxia; 5, mild paraparesis of hindlimbs; 6, moderate paraparesis; 7, severe paraparesis or paraplegia; 8, tetraparesis; 9, moribund; 10, death. Relapses were defined as deterioration by 2 points or more within 2 days. […] Animals were pooled from two experiments (total number of 14 mice per group). Mice were followed until the late phase of the disease (72 days p.i.).

[2] = test system: MOG-EAE in C57BL/6 mice; assay: Blinded histological analysis of spinal cord in MOG-EAE, 72 days p.i.; assay type: in vivo; settings: oral, vs methocel control; for numbers of CD 3 positive T cells infiltrating the spinal cord / numbers of Mac-3 positive macrophages and microglia infiltrating the spinal cord: 72 days after induction of MOG-EAE; for axonal loss (relative axonal density) / level of demyelination (% white matter): spinal cord, 72 days p.i.
Protocol: Treatment started at day -20 before the injection of MOG. The following compounds were administered orally to three groups of mice as follows: 1) Ca-monomethyl fumarate 5 mg/kg body weight bid; 2) dimethyl fumarate 15 mg/kg body weight bid; 3) 0.08% methocel as control. For analyzing the clinical course, data was pooled from two experiments (one experiment with 6 mice and another with 8 mice per group yielding a total number of 14 mice per experimental group). Histology-One experiment was terminated on day 72 p.i. for histologic evaluation. At that time point, 6 mice in the MMF and 6 mice in the control group were available for analysis. The DMF group consisted of 4 mice (2 non-EAE related drop-outs). Mice were anesthetized with ether, bled and perfused with 25 ml Ringer solution and 10 ml of 4% paraformaldehyde in buffered PBS. Spinal cord was dissected out and fixed overnight in 4% paraformaldehyde in buffered PBS at 4° C. before embedding in paraffin. Paraffin sections were stained with hematoxylin and eosin for visualization of inflammatory infiltrates and Luxol fast blue for visualization of demyelination. Coded sections from cervical, thoracic and lumbar spinal cord were evaluated by a blinded observer by means of overlaying a stereological grid and counting mean CD3 and Mac-3 positive cells within 3 visual fields (each 0.096 mm^2) with the most intense pathology under a 400-fold magnification. The extent of demyelination was assessed by relating the number of grid squares with demyelination to the total number of grid squares containing white matter over an average of 8-10 independent levels of spinal cord per mouse. CD3, Mac-3 positive cells and APP positive axons were quantified on 3 representative sections, each one of cervical, thoracic and lumbar spinal cord by counting 2 defined areas with the most intense pathology under a 40-fold magnification. Histological evaluation was performed as described in Eugster et al., Eur. J. Immunol., 1999, […].

[3] = Ca-monomethyl fumarate 5 mg/kg bid

With COC(=O)/C=C/C(=O)OC [DMF, dimethyl fumarate, reference compound] the “clinical score / disease course” value ([1]; dimethyl fumarate 15 mg/kg body weight bid) was “significantly milder disease course; also recorded: effective to reduce the clinical score up to 72 days p.i”, the “numbers of CD 3 positive T cells infiltrating the spinal cord” value ([2]; dimethyl fumarate 15 mg/kg bid) was “not significantly different” and the “numbers of Mac-3 positive macrophages and microglia infiltrating the spinal cord” value ([2]; dimethyl fumarate 15 mg/kg bid) was “not significantly different”. For the same compound, the “axonal loss (relative axonal density)” value ([2]; dimethyl fumarate 15 mg/kg bid) was “reduced” and the “level of demyelination (% white matter)” value ([2]; dimethyl fumarate 15 mg/kg bid) was “reduced”.

For COC(=O)/C=C/C(=O)O [MMF, Ca-monomethyl fumarate], the “clinical score / disease course” value ([1]; Ca-monomethyl fumarate 5 mg/kg body weight bid) was “not sufficient to significantly affect the clinical score”, the “numbers of CD 3 positive T cells infiltrating the spinal cord” value [2, 3] was “not significantly different” and the “numbers of Mac-3 positive macrophages and microglia infiltrating the spinal cord” value [2, 3] was “not significantly different”. For the same compound, the “axonal loss (relative axonal density)” value [2, 3] was “reduced demyelination and axonal loss” and the “level of demyelination (% white matter)” value [2, 3] was “reduced demyelination and axonal loss”.
